According to patent publication US8063071B2 (GlaxoSmithKline, LLC, priority 2007, dated 2011):
Counter-ions that a name gives are not always drawn.

Columns and labels:
[1] = target: T1, Recombinant human IKKβ (residues 1-737) (Homo sapiens, UniProt O14920); experiment: IKK2 assay (TR-FRET); assay type: biochemical; conditions: ATP 1 μM final, read-out: pIC50 against IKK2 (converted)
T1 construct: Recombinant human IKKβ (residues 1-737); GST (C); made in house
T1 sequence (O14920 1-737): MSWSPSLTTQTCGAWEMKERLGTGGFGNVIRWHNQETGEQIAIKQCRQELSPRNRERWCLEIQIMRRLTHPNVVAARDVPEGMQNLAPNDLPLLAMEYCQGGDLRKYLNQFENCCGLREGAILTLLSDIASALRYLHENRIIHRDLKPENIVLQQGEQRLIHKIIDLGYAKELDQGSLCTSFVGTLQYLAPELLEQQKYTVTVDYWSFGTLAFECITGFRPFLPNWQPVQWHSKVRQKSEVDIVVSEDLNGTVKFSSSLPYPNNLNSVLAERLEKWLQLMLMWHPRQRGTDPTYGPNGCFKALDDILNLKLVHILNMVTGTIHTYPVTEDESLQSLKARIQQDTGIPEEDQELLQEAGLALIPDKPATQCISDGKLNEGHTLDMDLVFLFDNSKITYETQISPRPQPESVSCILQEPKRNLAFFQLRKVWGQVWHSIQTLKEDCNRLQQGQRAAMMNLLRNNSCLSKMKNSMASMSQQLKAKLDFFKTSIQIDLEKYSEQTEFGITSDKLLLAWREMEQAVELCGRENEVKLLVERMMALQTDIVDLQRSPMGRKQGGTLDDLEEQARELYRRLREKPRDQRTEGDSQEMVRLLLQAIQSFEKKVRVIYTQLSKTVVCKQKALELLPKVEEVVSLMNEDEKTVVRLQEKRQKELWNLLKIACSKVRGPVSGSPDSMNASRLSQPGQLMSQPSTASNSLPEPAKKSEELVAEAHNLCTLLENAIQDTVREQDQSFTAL
Summary of the method: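 Baculovirus-expressed C-terminal GST-tagged IKKβ (0.5-5 nM final) in HEPES pH 7.4, MgCl2, CHAPS, DTT, BSA with 1.7% DMSO; 25 nM GST-IB substrate and 1 μM ATP, 15 min at room temperature. EDTA stop; phospho-Ser32/36 detected by Eu-antibody/APC-anti-GST TR-FRET, 665/620 nm ratio.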

[2] = system: human monocyte stimulated cytokine production (TNF-α); experiment: Monocyte assay (LPS-stimulated TNF-α production); assay type: cell-based; conditions: 24 h, 200 ng/mL LPS, TNF-α by ELISA
Summary of the method: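 Human CD14+ monocytes were purified from blood and plated at 1×10^6 cells/mL in RPMI 1640 with 10% FBS. Compound was added 30 min before stimulation with 200 ng/mL LPS (0.1% DMSO final), followed by 24 hrs at 37 C. Supernatant TNF-α was measured by ELISA, and viability by trypan blue exclusion.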

Row | IC50 [1] [µM] | IC50 [2] [µM] | Compound
1 | ≤ 10 | ≤ 1.5 | CCS(=O)(=O)N1CCC(c2c[nH]c3c(C(N)=O)cc(-c4cc(C#N)cc(CNCC(C)C)c4)cc23)CC1 [Example 357, 5-(3-cyano-5-{[(2-methylpropyl)amino]methyl}phenyl)-3-[1-(ethylsulfonyl)-4-piperidinyl]-1H-indole-7-carboxamide trifluoroacetate]
2 | ≤ 10 | ≤ 1.5 | CCS(=O)(=O)N1CCC(c2c[nH]c3c(C(N)=O)cc(-c4cc(C#N)cc(CN(C)C)c4)cc23)CC1 [Example 358, 5-{3-cyano-5-[(dimethylamino)methyl]phenyl}-3-[1-(ethylsulfonyl)-4-piperidinyl]-1H-indole-7-carboxamide trifluoroacetate]
3 | ≤ 10 | > 1 | CCS(=O)(=O)N1CCC(c2c[nH]c3c(C(N)=O)cc(-c4cccc(CNC(=O)c5ccc(F)cc5)c4)cc23)CC1 [Example 360, 3-[1-(ethylsulfonyl)-4-piperidinyl]-5-[3-({[(4-fluorophenyl)carbonyl]amino}methyl)phenyl]-1H-indole-7-carboxamide trifluoroacetate]
4 | ≤ 10 | ≤ 1.5 | CCS(=O)(=O)N1CCC(c2c[nH]c3c(C(N)=O)cc(-c4cccc(CNC(=O)c5ccco5)c4)cc23)CC1 [Example 361, 3-[1-(ethylsulfonyl)-4-piperidinyl]-5-(3-{[(2-furanylcarbonyl)amino]methyl}phenyl)-1H-indole-7-carboxamide trifluoroacetate]
5 | ≤ 10 | > 1 | CCS(=O)(=O)N1CCC(c2c[nH]c3c(C(N)=O)cc(-c4cccc(CNC(=O)C5CCCC5)c4)cc23)CC1 [Example 362, 5-(3-{[(cyclopentylcarbonyl)amino]methyl}phenyl)-3-[1-(ethylsulfonyl)-4-piperidinyl]-1H-indole-7-carboxamide trifluoroacetate]
6 | ≤ 10 | > 1 | CCS(=O)(=O)N1CCC(c2c[nH]c3c(C(N)=O)cc(-c4cccc(CNC(=O)c5cc6ccccc6s5)c4)cc23)CC1 [Example 363, 5-(3-{[(1-benzothien-2-ylcarbonyl)amino]methyl}phenyl)-3-[1-(ethylsulfonyl)-4-piperidinyl]-1H-indole-7-carboxamide]
7 | ≤ 10 | ≤ 1.5 | CCS(=O)(=O)N1CCC(c2c[nH]c3c(C(N)=O)cc(-c4cccc(CNC(=O)C5CCN(C(C)=O)CC5)c4)cc23)CC1 [Example 364, 5-[3-({[(1-acetyl-4-piperidinyl)carbonyl]amino}methyl)phenyl]-3-[1-(ethylsulfonyl)-4-piperidinyl]-1H-indole-7-carboxamide]
8 | ≤ 10 | > 1 | CCS(=O)(=O)N1CCC(c2c[nH]c3c(C(N)=O)cc(-c4cccc(CNC(=O)c5cccn5C)c4)cc23)CC1 [Example 365, 3-[1-(ethylsulfonyl)-4-piperidinyl]-5-[3-({[(1-methyl-1H-pyrrol-2-yl)carbonyl]amino}methyl)phenyl]-1H-indole-7-carboxamide]
9 | ≤ 10 | ≤ 1.5 | CCS(=O)(=O)N1CCC(c2c[nH]c3c(C(N)=O)cc(-c4cccc(CNC(=O)Cc5cccs5)c4)cc23)CC1 [Example 366, 3-[1-(ethylsulfonyl)-4-piperidinyl]-5-(3-{[(2-thienylacetyl)amino]methyl}phenyl)-1H-indole-7-carboxamide]
10 | ≤ 10 | ≤ 1.5 | CCS(=O)(=O)N1CCC(c2c[nH]c3c(C(N)=O)cc(-c4cccc(CNC(=O)C5CCC5)c4)cc23)CC1 [Example 367, 5-(3-{[(cyclobutylcarbonyl)amino]methyl}phenyl)-3-[1-(ethylsulfonyl)-4-piperidinyl]-1H-indole-7-carboxamide]
11 | ≤ 10 | ≤ 1.5 | CCS(=O)(=O)N1CCC(c2c[nH]c3c(C(N)=O)cc(-c4cccc(CNC(=O)C5CC5)c4)cc23)CC1 [Example 368, 5-(3-{[(cyclopropylcarbonyl)amino]methyl}phenyl)-3-[1-(ethylsulfonyl)-4-piperidinyl]-1H-indole-7-carboxamide]
